Patent US9234025B2, “Extracellular allosteric inhibitor binding domain from a tyrosine kinase receptor” (SANOFI, priority 2009, dated 2016)

Tested on: FGFR2
Assay: FRS2, Erk1/2 and PLCγ phosphorylation in FGFR2-transfected HEK293 cells (western blot)
Format: cell-based, human
Settings: compound at 1 μM
Protocol: HEK293 cells were either transiently of stably transfected (using FuGENE 6, Roche) with hFGFR2IIIca or hFGFR2IIIca-Y328D cloned in pcDNA3 (Invitrogen). Stably transfected cells were grown in G418 (400 μg/ml) containing medium. Before stimulation, the cells were starved overnight in DMEM (0% serum), and pre-incubated with […] at the required concentration. The cells were subsequently stimulated with FGF2 (concentration between 0.5-10 ng/ml) for 5 min at 37° C. with or without SSR or SU5402 at 1 μM. After washing with ice-cold phosphate-buffered saline containing phosphatase inhibitors (Roche), cells were lysed in RIPA buffer (Tris 30 mM HCl pH 7.5, 150 mM NaCl, 1 mM EDTA, 1% triton-X, 0.5% w/v deoxycholate, containing phophatase and protease inhibitors as described by the manufacturer (Roche)). Cell lysates were centrifuged at 12,000 g for 10 min, and the supernatants were collected. Proteins were separated on Novex polyacrylamide gels (Invitrogen, Carlsbad, Calif.) and subsequently transferred onto Hybond ECL nitrocellulose membranes (Amersham Pharmacia). Following incubation with 5% non-fat milk powder in PBS, the membranes were incubated overnight at 4° C. with the following antibodies: phospho-ERK1/2 (CST:9101), phospho-FRS2 (CST:3861), phospho-PLCγ (CST:2821) and FGFR2 (F0300, Sigma).
In order to evaluate SSR effect on FGFR-controlled phosphor-signalling, HEK293 cells have been transfected with FGFR2 and the two main pathways following FGFR autophosphorylation, PLCγ and FRS2, have been studied by western blot in comparison with a published FGFR tyrosine kinase inhibitor SU5402 described to inhibit FGFR-dependent FRS2 and PLCγ cascades (Zhen et al., Oncogene 2007). In such cells, FGF induces FRS2, Erk1/2 and PLCγ phosphorylation. […] More generally, these differences in phosphorylation can be used as reporter to evaluate allosteric modulators.

Cc1c[nH]c(/C=C2\C(=O)Nc3ccccc32)c1CCC(=O)O [SU5402]
blocks: FGF-induced Erk1/2 phosphorylation | FGF-induced FRS2 phosphorylation | FGF-induced PLCγ phosphorylation
